Results: patent publication US8415469B2, “Compounds and methods for kinase modulation, and indications therefor” (Plexxikon Inc., priority 2005, dated 2013)
Like-named read-outs stand apart in the source and are kept apart here.

Columns and labels:
Assay type in all cases: biochemical
Akt3 = Akt3 (Homo sapiens, UniProt Q9Y243); experiment: AlphaScreen kinase assay, Akt3; conditions: read-out: IC50, activity toward kinase Akt3
Description: AlphaScreen assay was used to screen additional kinases. The assay is similarly dependent on the phosphorylation of a peptide substrate. In this assay, an antibody that recognizes phosphorylated substrate is bound to an acceptor bead. The peptide substrate is attached to biotin, which binds to a donor head that contains streptavidin. Thus phosphorylated substrate is bound by antibody and streptavidin, bringing the donor and acceptor heads into close proximity when kinase is not inhibited. The donor produces singlet oxygen which results in emission from the acceptor when they are in close proximity. Conversely, when kinase is inhibited, the donor and acceptor beads are not associated and the emission from the acceptor is reduced.
AlphaScreen assays were done using compounds dissolved in DMSO to a concentration of 20 mM. The compounds were diluted accordingly to the desired final concentrations in each sample well, using 1:3 serial dilution for a total of 8 concentration points.

Zap70 = target: T1, Zap70 (Homo sapiens, UniProt P43403); experiment: AlphaScreen kinase assay, Zap70; conditions: read-out: IC50, activity toward kinase Zap70
T1 construct: P1868.pFastBac1 ZAP70 D327-G606 HIS, WT; His7 (HHHHHHH) (C); made in house
T1 sequence (P43403 with tags, fused parts or gaps): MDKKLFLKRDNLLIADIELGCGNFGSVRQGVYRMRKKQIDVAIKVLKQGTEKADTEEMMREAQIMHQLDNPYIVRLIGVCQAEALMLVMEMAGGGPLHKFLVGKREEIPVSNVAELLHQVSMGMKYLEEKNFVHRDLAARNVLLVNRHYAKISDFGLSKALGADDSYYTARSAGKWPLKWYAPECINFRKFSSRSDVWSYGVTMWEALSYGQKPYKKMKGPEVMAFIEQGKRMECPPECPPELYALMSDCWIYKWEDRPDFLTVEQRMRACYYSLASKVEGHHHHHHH
Procedure, shortened: (§1)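 Uses phospho-specific antibody on acceptor beads plus streptavidin donor beads capturing biotinylated peptide substrate; singlet oxygen from donor excites nearby acceptor. Inhibitors tested in 8-point, 1:3 titrations starting from 20 mM DMSO solutions.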

FGFR1 = target: T2, FGFR1 (Homo sapiens, UniProt P11362, C488A/C584S); experiment: AlphaScreen kinase assay, FGFR1
T2 construct: P1351.pET N6 BI-PTP FGFR A458-E765-X C488A, C584S; made in house; host or cells: E. coli (PTP1B co-expressed)

MAP4K4 = MAP4K4 (Homo sapiens, UniProt O95819); experiment: AlphaScreen kinase assay, MAP4K4; conditions: read-out: IC50, activity toward kinase MAP4K4
Pyk2 = target: T3, Pyk2 (Homo sapiens, UniProt Q14289); experiment: AlphaScreen kinase assay, Pyk2; conditions: read-out: IC50, activity toward kinase Pyk2
T3 construct: purchased Upstate Biotechnology

B-Raf = target: T4, B-Raf (Homo sapiens, UniProt P15056); experiment: AlphaScreen kinase assay, B-Raf; conditions: read-out: IC50, activity toward kinase B-Raf
T4 construct: purchased Upstate Biotechnology

Fms = target: T5, Fms (Homo sapiens, UniProt P07333); experiment: AlphaScreen kinase assay, Fms; conditions: read-out: IC50, activity toward kinase Fms
T5 construct: purchased Upstate Biotechnology

B-Raf V600E = target: T6, B-Raf V600E (Homo sapiens, UniProt P15056, V600E); experiment: AlphaScreen kinase assay, B-Raf V600E; conditions: read-out: IC50, activity toward kinase B-Raf V600E
T6 construct: P4254. pFastBacBD-CDC37 BRAF D437-K722-X, V600E; His6 with pFastBac HT leader (TEV site) (N); made in house; host or cells: Sf9 (baculovirus; chaperone CDC37 co-expressed)

Jnk3 = target: T7, Jnk3 (Homo sapiens, UniProt P53779); experiment: AlphaScreen kinase assay, Jnk3; conditions: read-out: IC50, activity toward kinase Jnk3
T7 construct: purchased Upstate Biotechnology

Jnk1 = target: T8, Jnk1 (Homo sapiens, UniProt P45983); experiment: AlphaScreen kinase assay, Jnk1; conditions: read-out: IC50, activity toward kinase Jnk1
T8 construct: purchased Upstate Biotechnology

Src = target: T9, Src (Homo sapiens, UniProt P12931); experiment: AlphaScreen kinase assay, Src; conditions: read-out: IC50, activity toward kinase Src
T9 construct: P1144. pET-N6 BI-PTP SRC V86-L536-X; made in house

Fak = target: T10, Fak (Homo sapiens, UniProt Q05397); experiment: AlphaScreen kinase assay, Fak; conditions: read-out: IC50, activity toward kinase Fak
T10 construct: P1358.pFastBacHtb FAK S411-Q686-X; His6 with pFastBacHTb leader (TEV site) (N); made in house; host or cells: Sf9 (baculovirus)

c-Raf-1 = target: T11, c-Raf-1 (Homo sapiens, UniProt P04049); experiment: AlphaScreen kinase assay, c-Raf-1; conditions: read-out: IC50, activity toward kinase c-Raf-1
T11 construct: purchased Upstate Biotechnology

Kit = target: T12, Kit (Homo sapiens, UniProt P10721); experiment: AlphaScreen kinase assay, Kit; conditions: read-out: IC50, activity toward kinase Kit
T12 construct: P1332.N6 BI PTP KIT M552-K948-X COD; His6 (N); made in house; host or cells: E. coli (PTP1B co-expressed)

Stk6 = target: T13, Stk6 (Homo sapiens, UniProt O14965); experiment: Z'-Lyte FRET kinase assay (Invitrogen), Stk6; conditions: read-out: IC50, activity toward kinase Stk6
T13 construct: purchased Invitrogen (Carlsbad, Calif.), screening service
T13 sequence (O14965 1-403): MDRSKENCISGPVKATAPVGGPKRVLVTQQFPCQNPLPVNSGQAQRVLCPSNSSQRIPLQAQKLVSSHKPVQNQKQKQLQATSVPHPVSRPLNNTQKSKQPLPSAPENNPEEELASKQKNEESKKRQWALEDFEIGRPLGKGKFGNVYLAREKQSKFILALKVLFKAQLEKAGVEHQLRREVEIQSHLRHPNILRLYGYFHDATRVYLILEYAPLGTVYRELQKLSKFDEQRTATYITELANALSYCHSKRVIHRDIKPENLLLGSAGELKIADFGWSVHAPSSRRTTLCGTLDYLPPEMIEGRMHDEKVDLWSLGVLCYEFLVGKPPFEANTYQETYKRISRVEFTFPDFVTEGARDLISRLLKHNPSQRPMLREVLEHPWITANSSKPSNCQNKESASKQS

Flt1 = target: T14, Flt1 (Homo sapiens, UniProt P17948); experiment: AlphaScreen kinase assay, Flt1; conditions: read-out: IC50, activity toward kinase Flt1
T14 construct: P1826.pETN6 BI-PTP FLT1 M799-D1165-X WT; His6 (N); made in house; host or cells: E. coli (PTP1B co-expressed)
T14 sequence (P17948 with tags, fused parts or gaps): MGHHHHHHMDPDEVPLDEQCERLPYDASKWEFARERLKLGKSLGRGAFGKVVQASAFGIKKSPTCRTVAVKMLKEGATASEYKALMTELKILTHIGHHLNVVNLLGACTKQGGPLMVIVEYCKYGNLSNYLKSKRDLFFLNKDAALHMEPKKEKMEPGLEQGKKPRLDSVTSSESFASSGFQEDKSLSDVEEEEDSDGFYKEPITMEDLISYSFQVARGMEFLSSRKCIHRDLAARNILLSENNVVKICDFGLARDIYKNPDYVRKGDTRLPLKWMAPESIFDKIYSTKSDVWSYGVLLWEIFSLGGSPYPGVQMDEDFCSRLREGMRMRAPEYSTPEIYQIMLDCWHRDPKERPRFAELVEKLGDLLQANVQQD

Kdr = target: T15, Kdr (Homo sapiens, UniProt P35968); experiment: Z'-Lyte FRET kinase assay (Invitrogen), Kdr; conditions: read-out: IC50, activity toward kinase Kdr
T15 construct: purchased Invitrogen (assay run by Invitrogen)

Jnk2 = target: T16, Jnk2 (Homo sapiens, UniProt P45984); experiment: AlphaScreen kinase assay, Jnk2; conditions: read-out: IC50, activity toward kinase Jnk2
T16 construct: purchased Roche Protein Expression Group (Indianapolis, IN)
Procedure, shortened: as §1

Yes = target: T17, Yes (Homo sapiens, UniProt P07947); experiment: Z'-Lyte FRET kinase assay (Invitrogen), Yes; conditions: read-out: IC50, activity toward kinase Yes
T17 construct: purchased Invitrogen (Carlsbad, Calif.), screening service
Procedure, shortened: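 Read-out is the coumarin-to-fluorescein emission ratio, which rises when unphosphorylated peptide is cleaved by the development protease. Reactions contain serially diluted compound, 2 μM peptide and 10 μM ATP and run for 1 h at room temperature before 1 h development.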

Ret = target: T18, Ret (Homo sapiens, UniProt P07949); experiment: AlphaScreen kinase assay, Ret; conditions: read-out: IC50, activity toward kinase Ret
T18 construct: P1378.pET-SF BI-PTP RET H661-R1012 HIS; made in house
T18 sequence (P07949 with tags, fused parts or gaps): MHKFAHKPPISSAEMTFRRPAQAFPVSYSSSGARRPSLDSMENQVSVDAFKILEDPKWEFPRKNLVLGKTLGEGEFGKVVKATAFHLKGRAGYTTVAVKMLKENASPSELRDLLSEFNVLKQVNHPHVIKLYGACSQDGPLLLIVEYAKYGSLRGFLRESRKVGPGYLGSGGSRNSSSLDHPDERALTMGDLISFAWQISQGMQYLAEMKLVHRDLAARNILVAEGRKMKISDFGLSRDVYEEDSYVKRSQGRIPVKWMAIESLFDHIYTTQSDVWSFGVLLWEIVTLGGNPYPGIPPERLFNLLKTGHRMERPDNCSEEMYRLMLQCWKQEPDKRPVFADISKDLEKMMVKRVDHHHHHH

[1] = read-out: IC50, activity toward kinase FGFR

Measured: IC50

T9 sequence (P12931 with tags, fused parts or gaps): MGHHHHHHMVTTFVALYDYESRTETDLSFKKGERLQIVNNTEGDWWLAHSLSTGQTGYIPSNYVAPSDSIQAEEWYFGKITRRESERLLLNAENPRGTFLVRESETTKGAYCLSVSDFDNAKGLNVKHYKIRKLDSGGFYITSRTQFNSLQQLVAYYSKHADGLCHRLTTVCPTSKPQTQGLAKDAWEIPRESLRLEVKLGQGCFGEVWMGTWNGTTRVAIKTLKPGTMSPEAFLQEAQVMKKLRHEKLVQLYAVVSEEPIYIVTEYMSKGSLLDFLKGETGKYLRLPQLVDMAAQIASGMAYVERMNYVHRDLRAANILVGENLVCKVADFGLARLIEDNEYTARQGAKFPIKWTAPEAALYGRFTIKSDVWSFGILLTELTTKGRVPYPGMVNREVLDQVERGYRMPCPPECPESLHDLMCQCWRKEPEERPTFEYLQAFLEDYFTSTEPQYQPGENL
T5 sequence (P07333 20-972): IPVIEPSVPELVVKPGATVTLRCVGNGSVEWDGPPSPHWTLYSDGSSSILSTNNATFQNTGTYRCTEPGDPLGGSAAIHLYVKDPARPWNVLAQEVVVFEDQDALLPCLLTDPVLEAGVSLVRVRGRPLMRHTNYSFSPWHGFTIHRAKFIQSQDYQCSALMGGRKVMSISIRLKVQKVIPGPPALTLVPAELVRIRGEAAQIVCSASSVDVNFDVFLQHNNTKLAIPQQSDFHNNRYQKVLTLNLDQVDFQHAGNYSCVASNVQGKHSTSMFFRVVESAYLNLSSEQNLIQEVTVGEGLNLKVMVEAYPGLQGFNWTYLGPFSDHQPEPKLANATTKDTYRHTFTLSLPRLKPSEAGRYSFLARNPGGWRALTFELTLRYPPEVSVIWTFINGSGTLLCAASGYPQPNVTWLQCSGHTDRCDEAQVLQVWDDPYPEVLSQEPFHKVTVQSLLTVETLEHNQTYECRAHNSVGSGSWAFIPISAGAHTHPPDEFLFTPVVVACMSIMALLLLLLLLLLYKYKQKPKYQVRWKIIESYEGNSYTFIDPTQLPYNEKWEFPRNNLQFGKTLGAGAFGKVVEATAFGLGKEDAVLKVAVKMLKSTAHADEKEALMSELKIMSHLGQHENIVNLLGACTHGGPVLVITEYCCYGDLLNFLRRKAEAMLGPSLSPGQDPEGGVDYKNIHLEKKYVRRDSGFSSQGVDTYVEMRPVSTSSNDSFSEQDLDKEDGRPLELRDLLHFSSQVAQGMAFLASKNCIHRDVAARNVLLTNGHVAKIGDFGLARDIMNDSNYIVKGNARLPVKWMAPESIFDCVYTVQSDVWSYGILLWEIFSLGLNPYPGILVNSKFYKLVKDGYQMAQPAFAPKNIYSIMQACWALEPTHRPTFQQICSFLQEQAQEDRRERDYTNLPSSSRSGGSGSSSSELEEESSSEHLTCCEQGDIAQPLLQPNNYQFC
Sequence of Akt3 (Q9Y243 whole entry): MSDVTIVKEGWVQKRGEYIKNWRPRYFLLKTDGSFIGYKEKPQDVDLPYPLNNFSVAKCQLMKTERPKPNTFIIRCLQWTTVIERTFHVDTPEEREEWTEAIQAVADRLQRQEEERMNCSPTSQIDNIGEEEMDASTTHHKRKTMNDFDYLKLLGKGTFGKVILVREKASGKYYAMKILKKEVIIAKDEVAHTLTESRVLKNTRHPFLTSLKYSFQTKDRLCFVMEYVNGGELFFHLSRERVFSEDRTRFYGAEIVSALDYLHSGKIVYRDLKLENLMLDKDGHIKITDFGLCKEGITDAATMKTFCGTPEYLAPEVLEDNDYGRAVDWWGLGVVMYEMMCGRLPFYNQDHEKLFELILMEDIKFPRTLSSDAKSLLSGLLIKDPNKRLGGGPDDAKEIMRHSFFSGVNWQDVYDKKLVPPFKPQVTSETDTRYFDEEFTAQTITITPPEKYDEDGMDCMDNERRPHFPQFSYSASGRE
T2 sequence (P11362 458-765 C488A/C584S): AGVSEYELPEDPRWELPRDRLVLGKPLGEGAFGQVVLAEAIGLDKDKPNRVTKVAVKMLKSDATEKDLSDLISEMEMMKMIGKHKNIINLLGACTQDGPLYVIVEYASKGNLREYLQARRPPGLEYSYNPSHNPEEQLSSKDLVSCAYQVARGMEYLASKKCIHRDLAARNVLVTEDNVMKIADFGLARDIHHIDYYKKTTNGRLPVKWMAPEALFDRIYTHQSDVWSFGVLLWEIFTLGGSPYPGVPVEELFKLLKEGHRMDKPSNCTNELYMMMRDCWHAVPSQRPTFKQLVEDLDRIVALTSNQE
T3 sequence (Q14289 whole entry): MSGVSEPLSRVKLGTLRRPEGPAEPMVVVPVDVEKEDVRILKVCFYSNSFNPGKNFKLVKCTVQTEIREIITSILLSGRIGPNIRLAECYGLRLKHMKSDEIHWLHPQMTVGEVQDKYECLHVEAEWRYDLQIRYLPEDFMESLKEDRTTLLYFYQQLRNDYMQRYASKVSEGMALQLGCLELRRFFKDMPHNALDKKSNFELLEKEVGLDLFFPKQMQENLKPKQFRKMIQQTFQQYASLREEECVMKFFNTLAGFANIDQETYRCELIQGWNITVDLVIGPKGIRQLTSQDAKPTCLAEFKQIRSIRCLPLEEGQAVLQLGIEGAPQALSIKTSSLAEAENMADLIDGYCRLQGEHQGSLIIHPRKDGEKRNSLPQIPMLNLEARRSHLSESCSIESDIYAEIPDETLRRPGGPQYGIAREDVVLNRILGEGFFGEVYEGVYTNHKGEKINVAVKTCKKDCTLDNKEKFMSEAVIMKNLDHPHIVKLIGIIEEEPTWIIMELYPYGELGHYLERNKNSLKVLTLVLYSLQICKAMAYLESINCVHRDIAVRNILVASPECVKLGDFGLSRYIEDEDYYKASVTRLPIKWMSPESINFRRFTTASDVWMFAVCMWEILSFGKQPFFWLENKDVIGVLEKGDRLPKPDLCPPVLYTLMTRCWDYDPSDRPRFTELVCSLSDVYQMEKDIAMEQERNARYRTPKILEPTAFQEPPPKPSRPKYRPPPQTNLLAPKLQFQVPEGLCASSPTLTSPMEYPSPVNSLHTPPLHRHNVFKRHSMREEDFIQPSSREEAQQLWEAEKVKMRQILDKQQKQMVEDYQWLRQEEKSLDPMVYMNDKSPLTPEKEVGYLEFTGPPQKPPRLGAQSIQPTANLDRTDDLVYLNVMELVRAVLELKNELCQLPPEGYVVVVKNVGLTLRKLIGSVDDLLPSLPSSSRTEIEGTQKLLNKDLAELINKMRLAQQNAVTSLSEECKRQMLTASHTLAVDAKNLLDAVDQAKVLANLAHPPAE
T7 sequence (P53779 whole entry): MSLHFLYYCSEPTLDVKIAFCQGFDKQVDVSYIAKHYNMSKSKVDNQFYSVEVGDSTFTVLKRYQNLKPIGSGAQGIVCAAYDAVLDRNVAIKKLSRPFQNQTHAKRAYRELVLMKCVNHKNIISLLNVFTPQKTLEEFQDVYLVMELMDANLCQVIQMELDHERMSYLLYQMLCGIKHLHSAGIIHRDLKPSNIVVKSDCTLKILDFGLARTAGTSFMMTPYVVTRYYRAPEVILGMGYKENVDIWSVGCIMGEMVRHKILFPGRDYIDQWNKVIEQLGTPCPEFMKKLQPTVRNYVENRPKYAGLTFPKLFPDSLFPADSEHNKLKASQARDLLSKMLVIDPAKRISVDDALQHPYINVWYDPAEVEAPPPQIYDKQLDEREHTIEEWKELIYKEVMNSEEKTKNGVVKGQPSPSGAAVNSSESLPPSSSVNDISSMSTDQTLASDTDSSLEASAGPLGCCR
T4 sequence (P15056 whole entry): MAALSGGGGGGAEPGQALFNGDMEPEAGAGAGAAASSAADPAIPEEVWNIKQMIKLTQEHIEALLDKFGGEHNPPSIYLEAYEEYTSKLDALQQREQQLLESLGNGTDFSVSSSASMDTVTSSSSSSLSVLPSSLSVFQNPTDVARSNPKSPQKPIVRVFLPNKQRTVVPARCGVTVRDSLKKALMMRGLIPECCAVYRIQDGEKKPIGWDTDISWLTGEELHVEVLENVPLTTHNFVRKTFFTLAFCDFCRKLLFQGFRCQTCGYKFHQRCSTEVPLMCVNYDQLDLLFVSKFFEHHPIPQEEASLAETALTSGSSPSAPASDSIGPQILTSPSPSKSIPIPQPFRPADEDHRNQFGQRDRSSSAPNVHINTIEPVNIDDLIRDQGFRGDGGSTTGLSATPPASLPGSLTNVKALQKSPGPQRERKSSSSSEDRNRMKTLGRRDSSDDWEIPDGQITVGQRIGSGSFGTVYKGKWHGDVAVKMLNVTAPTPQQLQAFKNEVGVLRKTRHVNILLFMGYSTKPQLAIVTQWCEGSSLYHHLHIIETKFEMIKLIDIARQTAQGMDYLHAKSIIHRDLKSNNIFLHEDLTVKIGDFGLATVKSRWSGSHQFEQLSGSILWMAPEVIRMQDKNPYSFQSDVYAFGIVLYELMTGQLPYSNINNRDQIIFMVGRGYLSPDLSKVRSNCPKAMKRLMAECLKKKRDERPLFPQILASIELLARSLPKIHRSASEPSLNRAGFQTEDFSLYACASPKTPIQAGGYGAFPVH
T12 sequence (P10721 with tags, fused parts or gaps): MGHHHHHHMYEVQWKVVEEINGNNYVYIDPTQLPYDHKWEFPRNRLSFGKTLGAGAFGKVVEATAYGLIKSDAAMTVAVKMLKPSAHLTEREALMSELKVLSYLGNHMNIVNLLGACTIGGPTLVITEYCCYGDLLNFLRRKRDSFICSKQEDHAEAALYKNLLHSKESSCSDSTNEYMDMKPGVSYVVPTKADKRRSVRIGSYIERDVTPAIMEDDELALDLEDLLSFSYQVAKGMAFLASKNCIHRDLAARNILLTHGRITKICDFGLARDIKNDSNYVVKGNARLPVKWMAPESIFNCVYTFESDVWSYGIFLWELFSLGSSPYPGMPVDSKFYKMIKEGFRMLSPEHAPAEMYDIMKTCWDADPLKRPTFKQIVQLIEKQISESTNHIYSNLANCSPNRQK

CC(C)c1ccc(Nc2cnc3[nH]ccc3c2)cc1 [Compound P-1039]
≤ 10 µM: Akt3

COc1ccc(Nc2ccnc3[nH]ccc23)cc1Cl [Compound P-0936]
≤ 10 µM: Akt3

Cc1cccc(Nc2ccnc3[nH]ccc23)c1 [Compound P-1060]
≤ 10 µM: Akt3

c1cnc2ccc(Nc3cnc4[nH]ccc4c3)cc2c1 [Compound P-1034]
≤ 10 µM: Akt3

c1cc(Nc2ccc3[nH]ccc3c2)c2cc[nH]c2n1 [Compound P-0940]
≤ 10 µM: Akt3

Cc1ccc(Nc2ccnc3[nH]ccc23)cc1[N+](=O)[O-] [Compound P-0995]
≤ 10 µM: Akt3

c1ccc2c(Cc3c[nH]c4ncccc34)cccc2c1 [Compound P-0442]
≤ 10 µM: Zap70 | FGFR1; [1] | MAP4K4

CC(C)S(=O)(=O)Nc1ccc(F)c(Cc2c[nH]c3ncc(-c4cccnc4)cc23)c1F [Compound P-0851]
≤ 10 µM: Pyk2 | B-Raf | Fms | B-Raf V600E | Jnk3 | FGFR1; [1] | Jnk1 | Src | Fak | c-Raf-1 | MAP4K4 | Kit

COc1ccc(Nc2cnc3[nH]ccc3c2)cc1 [Compound P-1095]
≤ 10 µM: Akt3

OCCOc1cccc(Cc2c[nH]c3ncc(-c4ccsc4)cc23)c1 [Compound P-0287]
≤ 10 µM: Pyk2 | Stk6 | Flt1 | Fms | B-Raf V600E | Kdr | FGFR1; [1] | MAP4K4 | Kit

COc1ccc(Nc2ccnc3[nH]ccc23)cc1 [Compound P-1155]
≤ 10 µM: Akt3

CSc1cccc(Nc2cnc3[nH]ccc3c2)c1 [Compound P-1150]
≤ 10 µM: Akt3

CSc1ccc(Nc2cnc3[nH]ccc3c2)cc1 [Compound P-1158]
≤ 10 µM: Akt3

c1cc(Nc2ccc3c(c2)OCO3)c2cc[nH]c2n1 [Compound P-1062]
≤ 10 µM: Akt3

CCCS(=O)(=O)Nc1ccc(Cl)c(C(=O)c2c[nH]c3ncc(-c4cccnc4)cc23)c1F [Compound P-0753, Propane-1-sulfonic acid [4-chloro-2-fluoro-3-(5-pyridin-3-yl-1H-pyrrolo[2,3-b]pyridine-3-carbonyl)-phenyl]-amide]
≤ 10 µM: Pyk2 | Fms | Jnk3 | FGFR1 | Jnk1 | Src | c-Raf-1 | MAP4K4 | Kit

CCCS(=O)(=O)Nc1ccc(F)c(C(=O)c2c[nH]c3ncc(OCCOC)cc23)c1F [Compound P-1253, Propane-1-sulfonic acid {2,4-difluoro-3-[5-(2-methoxy-ethoxy)-1H-pyrrolo[2,3-b]pyridine-3-carbonyl]-phenyl}-amide]
≤ 10 µM: B-Raf | Jnk2 | Fms | B-Raf V600E | Jnk3 | FGFR1; [1] | Jnk1 | Src | Fak | c-Raf-1 | MAP4K4 | Kit

CSc1ccc(Nc2ccnc3[nH]ccc23)cc1 [Compound P-0990]
≤ 10 µM: Akt3

Oc1ccc(Nc2ccnc3[nH]ccc23)cc1 [Compound P-1172]
≤ 10 µM: Akt3

O=C(c1ccc(NCC2CC2)nc1)c1c[nH]c2ncccc12 [Compound P-0202]
≤ 10 µM: Stk6 | Yes | Kdr | MAP4K4

CS(=O)(=O)Nc1ccc(Cl)c(C(=O)c2c[nH]c3ncc(-c4cccnc4)cc23)c1F [Compound P-0734, N-[4-Chloro-2-fluoro-3-(5-pyridin-3-yl-1H-pyrrolo[2,3-b]pyridine-3-carbonyl)-phenyl]-methanesulfonamide]
≤ 10 µM: B-Raf | Jnk2 | B-Raf V600E | Jnk3 | FGFR1; [1] | Jnk1 | Ret | c-Raf-1 | MAP4K4
